The EC50 is the concentration that produces a half-maximal response.

For 42 molecules, EC50 results are on record in patent US12528801B2 (Givaudan SA, priority 2019, dated 2026).

T1 sequence (Q7Z2W7 whole entry): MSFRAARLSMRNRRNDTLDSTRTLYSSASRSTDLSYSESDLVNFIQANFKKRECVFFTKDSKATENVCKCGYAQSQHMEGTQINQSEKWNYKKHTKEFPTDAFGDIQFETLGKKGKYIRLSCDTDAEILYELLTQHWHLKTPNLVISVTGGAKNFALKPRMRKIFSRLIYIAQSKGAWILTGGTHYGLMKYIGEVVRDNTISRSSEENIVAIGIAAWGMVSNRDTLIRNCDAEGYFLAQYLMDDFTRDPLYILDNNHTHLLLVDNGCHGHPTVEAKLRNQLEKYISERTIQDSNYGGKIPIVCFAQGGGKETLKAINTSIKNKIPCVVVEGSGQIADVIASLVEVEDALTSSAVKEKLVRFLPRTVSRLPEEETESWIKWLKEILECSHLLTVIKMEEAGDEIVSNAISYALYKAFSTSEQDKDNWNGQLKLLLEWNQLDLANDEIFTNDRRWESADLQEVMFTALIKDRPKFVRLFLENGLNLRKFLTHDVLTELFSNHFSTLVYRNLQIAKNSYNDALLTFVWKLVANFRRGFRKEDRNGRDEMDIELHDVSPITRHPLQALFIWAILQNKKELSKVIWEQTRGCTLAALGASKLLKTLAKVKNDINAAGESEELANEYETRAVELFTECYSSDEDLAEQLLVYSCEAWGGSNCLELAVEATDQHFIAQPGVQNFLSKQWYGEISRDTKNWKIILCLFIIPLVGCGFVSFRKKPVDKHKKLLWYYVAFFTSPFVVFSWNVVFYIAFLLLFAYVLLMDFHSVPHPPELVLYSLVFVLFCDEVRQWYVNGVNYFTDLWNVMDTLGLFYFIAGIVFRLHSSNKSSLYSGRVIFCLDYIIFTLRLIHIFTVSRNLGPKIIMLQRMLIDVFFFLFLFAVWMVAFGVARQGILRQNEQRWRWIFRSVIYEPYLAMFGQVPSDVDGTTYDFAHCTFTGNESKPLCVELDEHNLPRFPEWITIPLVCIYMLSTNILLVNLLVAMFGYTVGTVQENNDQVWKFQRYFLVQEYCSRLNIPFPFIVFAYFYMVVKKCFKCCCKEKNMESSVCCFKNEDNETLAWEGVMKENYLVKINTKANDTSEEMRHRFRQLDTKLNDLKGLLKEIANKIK

This test addresses T1, hTRPM8 (Homo sapiens, UniProt Q7Z2W7).
T1 construct: expressed in transfected cells
Briefly: Assay on TRPM8 modulators: calcium imaging (Fluo-4, Flexstation) in HEK293 cell line stably expressing hTRPM8. The following applies: HEK293 cells stably expressing hTRPM8; calcium influx, Fluo-4, Flexstation 3; sigmoidal dose-response fit. Format: cell-based. The gist of the method: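 HEK293 cells stably expressing hTRPM8 were loaded with Fluo-4 AM plus probenecid and kept in HEPES buffer, pH 7.4. Calcium influx to serially diluted compounds was recorded for 120 s. Maximal activation was referenced to solvent control and 31.6 μM menthol, with EC values from sigmoidal dose-response fits.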
For `COCC(OC)C(=O)N1CCCCC1c1nc(-c2ccccc2)c[nH]1` (stereo not drawn) [Compound 144, 2,3-dimethoxy-1-(2-(4-phenyl-1H-imidazol-2-yl)piperidin-1-yl)propan-1-one], the EC50 is 1 to 35 µM. Turning to `CC(C)C(C)C(=O)N1CCCCC1c1nc(-c2ccccc2)c[nH]1` (stereo not drawn) [Compound 145, 2,3-dimethyl-1-(2-(4-phenyl-1H-imidazol-2-yl)piperidin-1-yl)butan-1-one], the EC50 was 0.05 to 0.3 µM. With `CSC(C)C(=O)N1CCCCC1c1nc(-c2cc(F)c(C#N)cc2F)c[nH]1` (stereo not drawn) [Compound 146, 2,5-difluoro-4-(2-(1-(2-(methylthio)propanoyl)piperidin-2-yl)-1H-imidazol-4-yl)benzonitrile], the EC50 was under 0.05 µM. As to `Cc1ccc(-c2cnc(C3CCCCN3C(=O)C(C)N)[nH]2)cc1` (stereo not drawn) [Compound 147, 2-amino-1-(2-(5-(p-toly)-1H-imidazol-2-yl)piperidin-1-yl)propan-1-one], the EC50 is 1 to 35 µM. Take `CC(C(=O)N1CCCCC1c1nc(-c2ccccc2)c[nH]1)C1CCC1` (stereo not drawn) [Compound 148, 2-cyclobutyl-1-(2-(4-phenyl-1H-imidazol-2-yl)piperidin-1-yl)propan-1-one]: the EC50 was in the range of 0.05 to 0.3 µM.

For `CCOC(C(=O)N1CCCCC1c1nc(-c2ccccc2)c[nH]1)C1CCCC1` (stereo not drawn) [Compound 149, 2-cyclopentyl-2-ethoxy-1-(2-(4-phenyl-1H-imidazol-2-yl)piperidin-1-yl)ethan-1-one], the EC50 was in the range of 1 to 35 µM. `O=C(CC1CC1)N1CCCCC1c1nc(-c2ccccc2)c[nH]1` (stereo not drawn) [Compound 150, 2-cyclopropyl-1-(2-(4-phenyl-1H-imidazol-2-yl)piperidin-1-yl)ethan-1-one]: the EC50 fell in the range of 1 to 35 µM. `CC(C(=O)N1CCCCC1c1nc(-c2ccccc2)c[nH]1)C1CC1` (stereo not drawn) [Compound 151, 2-cyclopropyl-1-(2-(4-phenyl-1H-imidazol-2-yl)piperidin-1-yl)propan-1-one]: the EC50 lay within 0.05 to 0.3 µM. As for `COC(C(=O)N1CCCCC1c1nc(-c2ccccc2)c[nH]1)C1CC1` (stereo not drawn) [Compound 152, 2-cyclopropyl-2-methoxy-1-(2-(4-phenyl-1H-imidazol-2-yl)piperidin-1-yl)ethan-1-one], the figure is 0.3 to 1 µM. As for `CCOC(C)C(=O)N1CCCCC1c1ncc(-c2cccc(F)c2)[nH]1` (stereo not drawn) [Compound 153, 2-ethoxy-1-(2-(5-(3-fluorophenyl)-1H-imidazol-2-yl)piperidin-1-yl)propan-1-one], the figure is 1 to 35 µM; as for `CC=C(CC)C(=O)N1CCCCC1c1nc(-c2ccccc2)c[nH]1` (stereo not drawn) [Compound 154, 2-ethyl-1-(2-(4-phenyl-1H-imidazol-2-yl)piperidin-1-yl)but-2-en-1-one], 0.05 to 0.3 µM; as for `CCC(CC)C(=O)N1CCCCC1c1nc(-c2ccccc2)c[nH]1` (stereo not drawn) [Compound 155, 2-ethyl-1-(2-(4-phenyl-1H-imidazol-2-yl)piperidin-1-yl)butan-1-one], 0.05 to 0.3 µM.

As to `CSC(C)C(=O)N1CCCCC1c1ncc(-c2ccc(C#N)c(F)c2)[nH]1` (stereo not drawn) [Compound 156, 2-fluoro-4-(2-(1-(2-(methylthio)propanoyl)piperidin-2-yl)-1H-imidazol-5-yl)benzonitrile], the EC50 is under 0.05 µM.

With `Cc1ccc(-c2cnc(C3CCCCN3C(=O)C(C)S)[nH]2)cc1` (stereo not drawn) [Compound 157, 2-mercapto-1-(2-(5-(p-tolyl)-1H-imidazol-2-yl)piperidin-1-yl)propan-1-one], the half-maximal effective concentration (EC50) is 0.05 to 0.3 µM. Regarding `CCC(OC)C(=O)N1CCCCC1c1nc(-c2ccccc2)c[nH]1` (stereo not drawn) [Compound 158, 2-methoxy-1-(2-(4-phenyl-1H-imidazol-2-yl)piperidin-1-yl)butan-1-one], the EC50 lay in the range of 0.3 to 1 µM. With `COC(C)C(=O)N1CCCCC1c1nc(-c2ccccc2)c[nH]1` (stereo not drawn) [Compound 159, 2-methoxy-1-(2-(4-phenyl-1H-imidazol-2-yl)piperidin-1-yl)propan-1-one] the figure was 1 to 35 µM; with `COC(C)C(=O)N1CCCCC1c1ncc(-c2ccc(C)cc2)[nH]1` (stereo not drawn) [Compound 160, 2-methoxy-1-(2-(5-(p-tolyl)-1H-imidazol-2-yl)piperidin-1-yl)propan-1-one], 0.05 to 0.3 µM; with `CCC(C)C(=O)N1CCCCC1c1nc(-c2ccccc2)c[nH]1` (stereo not drawn) [Compound 161, 2-methyl-1-(2-(4-phenyl-1H-imidazol-2-yl)piperidin-1-yl)butan-1-one], 0.05 to 0.3 µM. Regarding `CC(C)C(=O)N1CCCCC1c1nc(-c2ccccc2)c[nH]1` (stereo not drawn) [Compound 162, 2-methyl-1-(2-(4-phenyl-1H-imidazol-2-yl)piperidin-1-yl)propan-1-one], the EC50 lay within 0.3 to 1 µM.

For the molecule `CC[C@H](C)C(=O)N1CCCC[C@@H]1c1ncc(-c2ccc(C)cc2)[nH]1` [Compound 165, (S)-2-methyl-1-((R)-2-(5-(p-tolyl)-1H-imidazol-2-yl)piperidin-1-yl)butan-1-one], the EC50 is under 0.05 µM. For `CC(=O)C(C)C(=O)N1CCCCC1c1ncc(-c2ccc(C)cc2)[nH]1` (stereo not drawn) [Compound 167, 2-methyl-1-(2-(5-(p-toly)-1H-imidazol-2-yl)piperidin-1-yl)butane-1,3-dione], the EC50 fell in the range of 0.05 to 0.3 µM. As for `CCCC(C)C(=O)N1CCCCC1c1ncc(-c2ccc(C)cc2)[nH]1` (stereo not drawn) [Compound 168, 2-methyl-1-(2-(5-(p-tolyl)-1H-imidazol-2-yl)piperidin-1-yl)pentan-1-one], the figure is under 0.05 µM; as for `C=C(C)C(=O)N1CCCCC1c1ncc(-c2ccc(C)cc2)[nH]1` (stereo not drawn) [Compound 169, 2-methyl-1-(2-(5-(p-tolyl)-1H-imidazol-2-yl)piperidin-1-yl)prop-2-en-1-one], under 0.05 µM. As for `Cc1ccc(-c2cnc(C3CCCCN3C(=O)C(C)C)[nH]2)cc1` (stereo not drawn) [Compound 170, 2-methyl-1-(2-(5-(p-tolyl)-1H-imidazol-2-yl)piperidin-1-yl)propan-1-one], the EC50 was under 0.05 µM. Consider `CSC(C)(C)C(=O)N1CCCCC1c1ncc(-c2ccc(C)cc2)[nH]1` (stereo not drawn) [Compound 171, 2-methyl-2-(methylthio)-1-(2-(5-(p-tolyl)-1H-imidazol-2-yl)piperidin-1-yl)propan-1-one], for which the EC50 was under 0.05 µM. With `CSCC(C)C(=O)N1CCCCC1c1nc(-c2ccccc2)c[nH]1` (stereo not drawn) [Compound 172] the figure was 0.3 to 1 µM; with `C=C(CC)C(=O)N1CCCCC1c1ncc(-c2ccc(C)cc2)[nH]1` (stereo not drawn) [Compound 173, 2-methylene-1-(2-(5-(p-toly)-1H-imidazol-2-yl)piperidin-1-yl)butan-1-one], under 0.05 µM; with `CSC(C)C(=O)N1CCCCC1c1nc(-c2cccc(C#N)c2)c[nH]1` (stereo not drawn) [Compound 174, 3-(2-(1-(2-(methylthio)propanoyl)piperidin-2-yl)-1H-imidazol-4-yl)benzonitrile], 0.05 to 0.3 µM.

`CC(C(=O)N1CCCCC1c1nc(-c2ccccc2)c[nH]1)C(F)(F)F` (stereo not drawn) [Compound 175, 3,3,3-trifluoro-2-methyl-1-(2-(4-phenyl-1H-imidazol-2-yl)piperidin-1-yl)propan-1-one]: the EC50 lay within 0.05 to 0.3 µM.

In the case of `O=C(CC(F)(F)C(F)(F)F)N1CCCCC1c1nc(-c2ccccc2)c[nH]1` (stereo not drawn) [Compound 176, 3,3,4,4,4-pentafluoro-1-(2-(4-phenyl-1H-imidazol-2-yl)piperidin-1-yl)butan-1-one], the EC50 fell in the range of 1 to 35 µM. For the molecule `CC(F)(F)CC(=O)N1CCCCC1c1nc(-c2ccccc2)c[nH]1` (stereo not drawn) [Compound 177, 3,3-difluoro-1-(2-(4-phenyl-1H-imidazol-2-yl)piperidin-1-yl)butan-1-one], the EC50 is 1 to 35 µM.

On to `CSC(C)C(=O)N1CCCCC1c1ncc(-c2ccc(C#N)cc2F)[nH]1` (stereo not drawn) [Compound 178, 3-fluoro-4-(2-(1-(2-(methylthio)propanoyl)piperidin-2-yl)-1H-imidazol-5-yl)benzonitrile], for which the EC50 is under 0.05 µM. In the case of `CC(C)=CC(=O)N1CCCCC1c1nc(-c2ccccc2)c[nH]1` (stereo not drawn) [Compound 179, 3-methyl-1-(2-(4-phenyl-1H-imidazol-2-yl)piperidin-1-yl)but-2-en-1-one], the EC50 is 1 to 35 µM. Turning to `CC(C)CC(=O)N1CCCCC1c1nc(-c2ccccc2)c[nH]1` (stereo not drawn) [Compound 180, 3-methyl-1-(2-(4-phenyl-1H-imidazol-2-yl)piperidin-1-yl)butan-1-one], the EC50 was in the range of 1 to 35 µM. Regarding `CSC(C)C(=O)N1CCCCC1c1nc(-c2ccc(C#N)cc2)c[nH]1` (stereo not drawn) [Compound 181, 4-(2-(1-(2-(methylthio)propanoyl)piperidin-2-yl)-1H-imidazol-4-yl)benzonitrile], the EC50 is under 0.05 µM. Turning to `CSC(C)C(=O)N1CCCCC1c1ncc(-c2ccc(C=O)cc2)[nH]1` (stereo not drawn) [Compound 182, 4-(2-(1-(2-(methylthio)propanoyl)piperidin-2-yl)-1H-imidazol-5-yl)benzaldehyde], the EC50 is under 0.05 µM. With `CC(CC(F)(F)F)C(=O)N1CCCCC1c1nc(-c2ccccc2)c[nH]1` (stereo not drawn) [Compound 183, 4,4,4-trifluoro-2-methyl-1-(2-(4-phenyl-1H-imidazol-2-yl)piperidin-1-yl)butan-1-one] the figure was 0.3 to 1 µM; with `O=C(N1CCCCC1c1nc(-c2ccccc2)c[nH]1)C12CC(C1)C2` (stereo not drawn) [Compound 184, bicyclo[1.1.1]pentan-1-yl(2-(4-phenyl-1H-imidazol-2-yl)piperidin-1-yl)methanone], 0.3 to 1 µM.

Regarding `O=C(C1CCC1)N1CCCCC1c1ncc(-c2cccc(F)c2)[nH]1` (stereo not drawn) [Compound 185, cyclobutyl(2-(5-(3-fluorophenyl)-1H-imidazol-2-yl)piperdin-1-yl)methanone], the EC50 fell in the range of 0.3 to 1 µM. As to `O=C(C1CCCC1)N1CCCCC1c1nc(-c2ccccc2)c[nH]1` (stereo not drawn) [Compound 186, cyclopentyl(2-(4-phenyl-1H-imidazol-2-yl)piperidin-1-yl)methanone], the EC50 was in the range of 0.3 to 1 µM.

On to `O=C(C1CC1)N1CCCCC1c1nc(-c2ccccc2)c[nH]1` (stereo not drawn) [Compound 187, cyclopropyl(2-(4-phenyl-1H-imidazol-2-yl)piperidin-1-yl)methanone], for which the EC50 was in the range of 1 to 35 µM. With `COC(=O)c1ccc(-c2cnc(C3CCCCN3C(=O)C(C)SC)[nH]2)cc1` (stereo not drawn) [Compound 188, methyl 4-(2-(1-(2-(methylthio)propanoyl)piperidin-2-yl)-1H-imidazol-5-yl)benzoate] the figure was 0.05 to 0.3 µM.
